From PMC10313368 (The Journal of Clinical Investigation, 2023)

System: HUVECs
Assay: mRNA angiogenesis array (TaqMan Array qPCR) in HUVECs
Type: cell-based, human
Parameters: ANG,RNASE4, array raw value (Figure 8B, well A10) / GAPDH, array raw value (Figure 8B, well A2) / EDIL3, array raw value (Figure 8B, well B2) / FGF1, array raw value (Figure 8B, well B4) / TIMP2, array raw value (Figure 8B, well E10) / SEMA3F, array raw value (Figure 8B, well E6) / CEACAM1, array raw value (Figure 8B, well F2) / LYVE1, array raw value (Figure 8B, well F6): scale not given here
Method: Angiogenesis array. Total RNA was isolated from MIO-MI cells (8 hours) and HUVECs (16 […]
cDNA was prepared with QuantiTect® Reverse Transcription Kit (Qiagen, Cat# 205311). RT-qPCR assay was performed with pre-configured TaqMan Array 96-Well FAST Plate for human angiogenic gene expression (Applied Biosystems, Inc) following the manufacture’s protocol. Each plate contains pre-defined genes including 18S, GAPDH and HPRT1 endogenous controls.
TaqMan Array plates were prepared by loading on each well 5 μl of cDNA sample (30 ng) with nuclease-free water and 5 μl of TaqMan™ Fast Advanced Master Mix (Applied Biosystem, Cat# […]
4444554). The reaction was performed using the QuantStudio™ 3 Flex Real‐Time PCR System as follows: 2 minutes at 50°C (stage 1); 10 minutes at 95°C (stage 2); 15 seconds at 95°C and 1 minutes at 60°C for 40 cycles (stage 3). The data were analyzed by using HPRT1 as endogenous […]
The clustering heatmaps were produced with “pheatmap” library in R with scale = row and clustering method = complete.
HUVEC cells, Euclidean distance was used to quantify the difference in qPCR screening. The Euclidean distance was calculated using “dist” function from R’s default stat library that measures the distance between 2 vectors (i.e., total qPCR expression values in control and treatment). In […]

Brc1ccc2c(-c3csc(-c4c[nH]c5c(Br)cccc45)n3)c[nH]c2c1 [32-134D, 4-(6-bromo-1H-indol-3-yl)-2-(7-bromo-1H-indol-3-yl)thiazole]
18S, array raw value (Figure 8B, well A1) (HUVEC, 1%O2+32-134D): 20.1818 | ADAMTS1, array raw value (Figure 8B, well D10) (HUVEC, 1%O2+32-134D): 29.7994 | AMOT, array raw value (Figure 8B, well D12) (HUVEC, 1%O2+32-134D): 39.0386 | ANG,RNASE4, array raw value (Figure 8B, well A10) (HUVEC, 1%O2+32-134D): 28.1406 | ANGPT1, array raw value (Figure 8B, well A11) (HUVEC, 1%O2+32-134D): 30.8384 | ANGPT2, array raw value (Figure 8B, well A12) (HUVEC, 1%O2+32-134D): 32.8047 | ANGPTL2, array raw value (Figure 8B, well E12) (HUVEC, 1%O2+32-134D): 30.2341 | ANGPTL4, array raw value (Figure 8B, well H5) (HUVEC, 1%O2+32-134D): 21.86 | CD44, array raw value (Figure 8B, well E1) (HUVEC, 1%O2+32-134D): 23.3811 | CDH5, array raw value (Figure 8B, well E2) (HUVEC, 1%O2+32-134D): 24.9237 | CEACAM1, array raw value (Figure 8B, well F2) (HUVEC, 1%O2+32-134D): 29.9396 | COL4A1, array raw value (Figure 8B, well G2) (HUVEC, 1%O2+32-134D): 30.6479 | COL4A2, array raw value (Figure 8B, well G3) (HUVEC, 1%O2+32-134D): 28.7346 | COL18A1, array raw value (Figure 8B, well G6) (HUVEC, 1%O2+32-134D): 29.7073 | CSF3, array raw value (Figure 8B, well H1) (HUVEC, 1%O2+32-134D): 33.4203 | CTGF, array raw value (Figure 8B, well C10) (HUVEC, 1%O2+32-134D): 23.3834 | CXCL2, array raw value (Figure 8B, well E3) (HUVEC, 1%O2+32-134D): 30.6168 | CXCL10, array raw value (Figure 8B, well D5) (HUVEC, 1%O2+32-134D): 36.21 | EDIL3, array raw value (Figure 8B, well B2) (HUVEC, 1%O2+32-134D): 26.4682 | EPHB2, array raw value (Figure 8B, well B3) (HUVEC, 1%O2+32-134D): 28.307 | FGF1, array raw value (Figure 8B, well B4) (HUVEC, 1%O2+32-134D): 29.8889 | FGF2, array raw value (Figure 8B, well B5) (HUVEC, 1%O2+32-134D): 30.0294 | FIGF, array raw value (Figure 8B, well F12) (HUVEC, 1%O2+32-134D): 33.3841 | FLT1, array raw value (Figure 8B, well E5) (HUVEC, 1%O2+32-134D): 30.21 | FN1, array raw value (Figure 8B, well G7) (HUVEC, 1%O2+32-134D): 28.5669 | FOXC2, array raw value (Figure 8B, well G1) (HUVEC, 1%O2+32-134D): 27.8513 | FST, array raw value (Figure 8B, well B7) (HUVEC, 1%O2+32-134D): 31.5936 | GAPDH, array raw value (Figure 8B, well A2) (HUVEC, 1%O2+32-134D): 20.3521 | GRN, array raw value (Figure 8B, well H2) (HUVEC, 1%O2+32-134D): 22.2393 | GUSB, array raw value (Figure 8B, well A4) (HUVEC, 1%O2+32-134D): 25.0498 | HEY1, array raw value (Figure 8B, well F3) (HUVEC, 1%O2+32-134D): 34.3049 | HPRT1, array raw value (Figure 8B, well A3) (HUVEC, 1%O2+32-134D): 25.0367 | HSPG2, array raw value (Figure 8B, well G5) (HUVEC, 1%O2+32-134D): 27.52 | IFNB1, array raw value (Figure 8B, well D3) (HUVEC, 1%O2+32-134D): 35.432 | IL8, array raw value (Figure 8B, well B9) (HUVEC, 1%O2+32-134D): 26.4133 | IL12A, array raw value (Figure 8B, well D6) (HUVEC, 1%O2+32-134D): 34.4259 | ITGA4, array raw value (Figure 8B, well D2) (HUVEC, 1%O2+32-134D): 28.3072 | ITGAV, array raw value (Figure 8B, well F4) (HUVEC, 1%O2+32-134D): 26.1181 | ITGB3, array raw value (Figure 8B, well H6) (HUVEC, 1%O2+32-134D): 25.3974 | KDR, array raw value (Figure 8B, well F10) (HUVEC, 1%O2+32-134D): 30.1984 | LYVE1, array raw value (Figure 8B, well F6) (HUVEC, 1%O2+32-134D): 34.6146 | MDK, array raw value (Figure 8B, well B11) (HUVEC, 1%O2+32-134D): 23.8862 | MMP2, array raw value (Figure 8B, well A9) (HUVEC, 1%O2+32-134D): 21.2904 | NRP1, array raw value (Figure 8B, well H10) (HUVEC, 1%O2+32-134D): 28.4453 | NRP2, array raw value (Figure 8B, well F9) (HUVEC, 1%O2+32-134D): 25.1088 | PDGFB, array raw value (Figure 8B, well C1) (HUVEC, 1%O2+32-134D): 28.0672 | PECAM1, array raw value (Figure 8B, well F5) (HUVEC, 1%O2+32-134D): 23.24 | PF4, array raw value (Figure 8B, well D8) (HUVEC, 1%O2+32-134D): 38.4479 | PLG, array raw value (Figure 8B, well A6) (HUVEC, 1%O2+32-134D): 36.8052 | PROX1, array raw value (Figure 8B, well H12) (HUVEC, 1%O2+32-134D): 31.6234 | PTN, array raw value (Figure 8B, well C2) (HUVEC, 1%O2+32-134D): 36.9532 | S1PR1, array raw value (Figure 8B, well H11) (HUVEC, 1%O2+32-134D): 25.2945 | SEMA3F, array raw value (Figure 8B, well E6) (HUVEC, 1%O2+32-134D): 31.8531 | SERPINB5, array raw value (Figure 8B, well E4) (HUVEC, 1%O2+32-134D): 36.9759 | SERPINC1, array raw value (Figure 8B, well A7) (HUVEC, 1%O2+32-134D): 34.8884 | SERPINF1, array raw value (Figure 8B, well D7) (HUVEC, 1%O2+32-134D): 37.5691 | TEK, array raw value (Figure 8B, well E7) (HUVEC, 1%O2+32-134D): 27.2772 | TGFA, array raw value (Figure 8B, well C4) (HUVEC, 1%O2+32-134D): 29.7382 | TGFB1, array raw value (Figure 8B, well C5) (HUVEC, 1%O2+32-134D): 24.01 | THBS1, array raw value (Figure 8B, well C12) (HUVEC, 1%O2+32-134D): 23.1291 | TIE1, array raw value (Figure 8B, well E8) (HUVEC, 1%O2+32-134D): 30.7653 | TIMP2, array raw value (Figure 8B, well E10) (HUVEC, 1%O2+32-134D): 25.4299 | TIMP3, array raw value (Figure 8B, well E11) (HUVEC, 1%O2+32-134D): 25.8838 | TNFSF15, array raw value (Figure 8B, well D1) (HUVEC, 1%O2+32-134D): 25.7168 | TNMD, array raw value (Figure 8B, well E9) (HUVEC, 1%O2+32-134D): 37.1045 | TYMP, array raw value (Figure 8B, well B12) (HUVEC, 1%O2+32-134D): 39.1978 | VASH1, array raw value (Figure 8B, well D9) (HUVEC, 1%O2+32-134D): 30.8647 | VEGFA, array raw value (Figure 8B, well C7) (HUVEC, 1%O2+32-134D): 30.4927 | VEGFB, array raw value (Figure 8B, well C8) (HUVEC, 1%O2+32-134D): 27.5522 | VEGFC, array raw value (Figure 8B, well C9) (HUVEC, 1%O2+32-134D): 27.3225 | ANGPTL4 mRNA (angiogenesis array, Figure 8C) (HUVEC, Hy+32-134D, Normal = 1): 35.2355 | COL4A1 mRNA (angiogenesis array, Figure 8C) (HUVEC, Hy+32-134D, Normal = 1): 3.543 | COL4A2 mRNA (angiogenesis array, Figure 8C) (HUVEC, Hy+32-134D, Normal = 1): 2.168 | CTGF mRNA (angiogenesis array, Figure 8C) (HUVEC, Hy+32-134D, Normal = 1): 3.12 | EPHB2 mRNA (angiogenesis array, Figure 8C) (HUVEC, Hy+32-134D, Normal = 1): 2.119 | HSPG2 mRNA (angiogenesis array, Figure 8C) (HUVEC, Hy+32-134D, Normal = 1): 1.339 | ITGB3 mRNA (angiogenesis array, Figure 8C) (HUVEC, Hy+32-134D, Normal = 1): 3.6621 | MMP2 mRNA (angiogenesis array, Figure 8C) (HUVEC, Hy+32-134D, Normal = 1): 3.052 | PDGFB mRNA (angiogenesis array, Figure 8C) (HUVEC, Hy+32-134D, Normal = 1): 2.63 | PROX1 mRNA (angiogenesis array, Figure 8C) (HUVEC, Hy+32-134D, Normal = 1): 2.021 | TGFA mRNA (angiogenesis array, Figure 8C) (HUVEC, Hy+32-134D, Normal = 1): 2.2277 | TGFB1 mRNA (angiogenesis array, Figure 8C) (HUVEC, Hy+32-134D, Normal = 1): 1.578 | TNMD mRNA (angiogenesis array, Figure 8C) (HUVEC, Hy+32-134D, Normal = 1): 1.388 | VEGFA mRNA (angiogenesis array, Figure 8C) (HUVEC, Hy+32-134D, Normal = 1): 4.067 | VEGFC mRNA (angiogenesis array, Figure 8C) (HUVEC, Hy+32-134D, Normal = 1): 3.879 | reduction in the Euclidean distance between control and hypoxic cell angiogenic gene expression (HUVECs, from 209 to 35): 83%
